In publication PMC9196127, “Novel STAT3 Inhibitors Targeting STAT3 Dimerization by Binding to the STAT3 SH2 Domain” (Frontiers in Pharmacology, 2022):

Target: STAT3 (Homo sapiens, UniProt P40763)
Assay: Fluorescence polarization (FP) competition assay with 5-FLU-GpYLPQTV-NH2
Type: binding
Design: purchased Abcam ab43618
Settings: FP assay
Description: The FP assay was conducted as described in [Zhao et al. (2010]). The fluorochrome-labeled phosphopeptide, 5-FLU-G (pY)LPQTV-NH2, was synthesized by ProImmune (London, United Kingdom) with over 95% purity as a probe. The recombinant human STAT3 protein was purchased from Abcam (ab43618). To obtain an inhibitory effect, drugs (0–1,000 μM) and 150 nM human STAT3 were incubated at 37°C in an assay buffer (50 mm NaCl, 10 mm HEPES, 1 mm EDTA, and 0.01% Triton X-100) for 1 h prior to co-incubation with 10 nM of the fluorochrome-labeled peptide at RT for 30 min. The plate was sealed under nitrogen and left at RT for 72 h. The fluorescence polarization was then analyzed by the BioTek Synergy™ Neo2 Multi-Mode Microplate Reader (BioTek Instruments, Winooski, VT, United States). Binding curves were fit to a log-logistic function using the R package drc. Ki was determined from the resulting IC50 using the Cheng–Prusoff equation and the Kd for fluorochrome-labeled peptide binding to STAT3, Ki = IC50/(([L])/Kd) +1. […]
FIGURE 4 Fluorescence polarization (FP) assays identified 323s as direct STAT3 SH2 domain binders. (A) Fluorescence polarization (FP) analysis of the binding of 10 nM GpYLTQTV-NH2and 150 nM human STAT3 protein with increasing concentration of drugs. […]

Chain of STAT3 (P40763 whole entry): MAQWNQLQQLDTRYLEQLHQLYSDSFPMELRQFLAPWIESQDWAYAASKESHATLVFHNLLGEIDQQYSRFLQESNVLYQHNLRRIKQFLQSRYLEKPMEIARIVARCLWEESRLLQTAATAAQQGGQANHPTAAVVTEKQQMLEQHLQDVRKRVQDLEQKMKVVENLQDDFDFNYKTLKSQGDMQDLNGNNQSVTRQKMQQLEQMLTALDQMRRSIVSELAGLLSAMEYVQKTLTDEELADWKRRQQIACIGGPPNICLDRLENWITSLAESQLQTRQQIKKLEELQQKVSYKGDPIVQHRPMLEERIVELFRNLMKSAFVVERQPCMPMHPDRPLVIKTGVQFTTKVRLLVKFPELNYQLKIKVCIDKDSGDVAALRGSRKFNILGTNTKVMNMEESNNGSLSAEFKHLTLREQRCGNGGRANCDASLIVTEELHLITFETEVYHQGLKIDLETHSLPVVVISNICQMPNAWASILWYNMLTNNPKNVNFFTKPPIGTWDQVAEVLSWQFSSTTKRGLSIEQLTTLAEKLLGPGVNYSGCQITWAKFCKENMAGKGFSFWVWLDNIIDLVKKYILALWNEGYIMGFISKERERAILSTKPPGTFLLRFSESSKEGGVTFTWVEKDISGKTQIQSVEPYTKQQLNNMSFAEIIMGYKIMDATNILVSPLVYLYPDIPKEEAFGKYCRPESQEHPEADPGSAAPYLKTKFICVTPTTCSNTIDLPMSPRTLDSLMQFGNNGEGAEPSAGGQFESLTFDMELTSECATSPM

Structure (SMILES) | potency to disrupt STAT3/GpYLPQTV relative to S3I-201
C[C@@H]1CCC(c2cc3c4c(cncc4c2)[C@H](C)C3)=C1C=O [323–1, (15R,2R)-delavatine A] | around five-fold more potently than S3I-201
C[C@@H]1CCC(c2cc3c4c(cncc4c2)[C@@H](C)C3)=C1C=O [323–2, (15S,2R)-delavatine A] | around five-fold more potently than S3I-201
